{"source": "patent US12544375B2", "about": "“Small molecule therapeutic for parkinson's disease paired with a biomarker of therapeutic activity” (The Board of Trustees of the Leland Stanford Junior …, priority 2019, dated 2026)", "target": "T1, Miro2 (Homo sapiens, UniProt Q8IXI1)", "T1 construct": "Miro1 Reducer had no influence on Miro2 in either healthy or PD cells; endogenous in cells; host or cells: human skin fibroblasts (Healthy-1, PD-2)", "T1 sequence (Q8IXI1 whole entry)": "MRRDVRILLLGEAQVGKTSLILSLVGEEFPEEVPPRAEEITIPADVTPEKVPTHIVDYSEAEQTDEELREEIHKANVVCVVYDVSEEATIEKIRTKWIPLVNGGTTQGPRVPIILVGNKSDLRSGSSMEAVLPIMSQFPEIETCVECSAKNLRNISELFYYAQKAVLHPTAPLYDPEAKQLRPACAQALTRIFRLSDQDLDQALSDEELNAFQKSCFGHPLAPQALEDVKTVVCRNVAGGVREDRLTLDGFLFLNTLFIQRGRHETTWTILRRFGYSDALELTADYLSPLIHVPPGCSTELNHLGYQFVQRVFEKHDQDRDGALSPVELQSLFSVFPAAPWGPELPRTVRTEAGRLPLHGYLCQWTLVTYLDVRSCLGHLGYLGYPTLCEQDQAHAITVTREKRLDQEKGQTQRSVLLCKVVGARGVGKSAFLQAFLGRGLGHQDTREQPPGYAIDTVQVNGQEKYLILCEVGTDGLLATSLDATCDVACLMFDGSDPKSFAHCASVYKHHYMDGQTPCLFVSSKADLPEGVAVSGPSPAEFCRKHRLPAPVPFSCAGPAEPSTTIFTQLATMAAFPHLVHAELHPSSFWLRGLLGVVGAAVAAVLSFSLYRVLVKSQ", "test": "Miro2 response to CCCP in fibroblasts, Western blotting", "assay_type": "cell-based", "conditions": "healthy or PD cells, CCCP 6 hrs", "method": "FIG. 2A-FIG. 2F. Miro1 Reducer Eliminates the Miro1 Defect in PD Fibroblasts. (FIG. 2A) Chemical properties of Miro1 Reducer. (FIG. 2B) Wild-type flies (w^1118) were fed with DMSO alone (0 μM Miro1 Reducer) or Miro1 Reducer in DMSO at 250 μM for 7 days, and lysed and blotted as indicated. The band intensities are normalized to those of Tubulin from the same blots. n=4. (FIG. 2C-FIG. 2E) Fibroblasts were treated, lysed, and blotted as indicated. (FIG. 2C) Band intensities are normalized to those of GAPDH from the same blots and compared to “Healthy-1, no treatment” except otherwise indicated. n=4. (FIG. 2D) Band intensities are normalized to those of ATP5β from the same blots and expressed as a percentage of the mean of “0 μM Miro1 Reducer with CCCP”. Mean±S.E.M is shown. n=3. (FIG. 2E) Band intensities are normalized to those of GAPDH from the same blots and compared to “Healthy-1, no CCCP, no MG132” except otherwise indicated. n=4. (FIG. 2F) Healthy-1 and PD-2 fibroblasts were transfected as indicated, and immunostained with anti-Myc (Miro1, green) and stained with Dapi (blue). The Miro1 intensity is normalized to that of mito-dsRed from the same cell and quantified across 37-62 cells from 5 fields each transfection, 3 independent transfections. Scale bars: 50 μm. For (FIG. 2C-FIG. 2F), both CCCP and Miro1 Reducer were dissolved in DMSO. […]"}
{"compound": "O=C(Nc1ccc(Nc2cc(-n3ccnc3)ncn2)cc1)Nc1cccc(F)c1", "note": "[Miro1 Reducer]", "values": [{"measurement": "influence on Miro2", "result": "no influence"}]}
